Data published in ChEMBL document CHEMBL4184249, “Structural development of tetrachlorophthalimides as liver X receptor β (LXRβ)-selective agonists with improved aqueous solubility” (Bioorg Med Chem Lett, 2018).
Active and inactive are the calls of the source. The rule behind the calls is not given here.

Key:
[1] = target: T1, Oxysterols receptor LXR-beta (Homo sapiens) (UniProt P55055); assay: Agonist activity at human LXRbeta expressed in HEK293 cells co-expressing CMX-beta-galactosidase incubated for 16 hrs by luciferase reporter gene assay relative to T0901317; format: cell-based
T1 sequence (whole entry): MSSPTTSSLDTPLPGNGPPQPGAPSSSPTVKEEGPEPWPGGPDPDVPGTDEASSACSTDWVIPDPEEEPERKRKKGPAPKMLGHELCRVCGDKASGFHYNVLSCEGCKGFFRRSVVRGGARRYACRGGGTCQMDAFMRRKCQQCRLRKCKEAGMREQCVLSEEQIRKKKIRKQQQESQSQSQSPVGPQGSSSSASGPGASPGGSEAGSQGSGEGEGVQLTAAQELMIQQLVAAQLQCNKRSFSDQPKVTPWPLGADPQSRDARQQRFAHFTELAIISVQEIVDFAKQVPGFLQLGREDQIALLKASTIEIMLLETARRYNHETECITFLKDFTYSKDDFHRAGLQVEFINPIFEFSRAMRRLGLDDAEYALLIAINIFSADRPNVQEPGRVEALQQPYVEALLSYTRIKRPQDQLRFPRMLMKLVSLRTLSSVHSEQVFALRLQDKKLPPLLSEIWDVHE

[2] = target: T2, Oxysterols receptor LXR-alpha (Homo sapiens) (UniProt Q13133); assay: Agonist activity at human LXRalpha expressed in HEK293 cells co-expressing CMX-beta-galactosidase at 30 uM incubated for 16 hrs by luciferase reporter gene assay; format: cell-based
T2 sequence (whole entry): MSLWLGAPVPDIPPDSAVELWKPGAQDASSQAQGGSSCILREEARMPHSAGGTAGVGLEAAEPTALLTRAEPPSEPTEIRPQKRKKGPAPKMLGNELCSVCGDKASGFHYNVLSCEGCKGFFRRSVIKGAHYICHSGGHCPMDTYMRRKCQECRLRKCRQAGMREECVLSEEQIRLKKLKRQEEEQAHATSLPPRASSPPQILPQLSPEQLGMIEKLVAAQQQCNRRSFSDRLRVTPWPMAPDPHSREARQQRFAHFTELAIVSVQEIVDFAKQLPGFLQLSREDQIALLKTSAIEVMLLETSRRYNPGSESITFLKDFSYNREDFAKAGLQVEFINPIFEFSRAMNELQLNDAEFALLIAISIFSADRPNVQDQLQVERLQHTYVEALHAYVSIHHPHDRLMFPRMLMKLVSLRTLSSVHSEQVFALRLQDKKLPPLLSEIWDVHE

[3] = target: T3, Retinoic acid receptor RXR-alpha (Homo sapiens) (UniProt P19793); assay: Agonist activity at GAL4-tagged RXRalpha (unknown origin) expressed in HEK293 cells co-expressing CMX-beta-galactosidase at 0.3 to 30 uM incubated for 16 hrs by luciferase reporter gene assay; format: cell-based
T3 sequence (whole entry): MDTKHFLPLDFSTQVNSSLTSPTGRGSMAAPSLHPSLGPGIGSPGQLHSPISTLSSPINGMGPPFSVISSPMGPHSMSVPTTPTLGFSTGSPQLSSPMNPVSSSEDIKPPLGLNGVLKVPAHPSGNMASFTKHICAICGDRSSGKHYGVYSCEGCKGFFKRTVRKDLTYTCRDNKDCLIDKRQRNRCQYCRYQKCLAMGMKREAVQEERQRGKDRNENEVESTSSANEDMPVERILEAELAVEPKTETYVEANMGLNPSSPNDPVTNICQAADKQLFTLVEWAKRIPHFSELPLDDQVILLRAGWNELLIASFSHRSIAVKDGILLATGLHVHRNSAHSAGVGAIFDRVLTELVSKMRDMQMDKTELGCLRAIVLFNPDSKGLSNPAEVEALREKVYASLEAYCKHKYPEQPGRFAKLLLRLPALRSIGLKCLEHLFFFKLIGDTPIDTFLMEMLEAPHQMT

[4] = target: T4, Oxysterols receptor LXR-beta (Mus musculus, UniProt Q60644); assay: Agonist activity at mouse LXRbeta expressed in HEK293 cells co-expressing CMX-beta-galactosidase incubated for 16 hrs by luciferase reporter gene assay; format: cell-based
T4 sequence (Q60644 whole entry): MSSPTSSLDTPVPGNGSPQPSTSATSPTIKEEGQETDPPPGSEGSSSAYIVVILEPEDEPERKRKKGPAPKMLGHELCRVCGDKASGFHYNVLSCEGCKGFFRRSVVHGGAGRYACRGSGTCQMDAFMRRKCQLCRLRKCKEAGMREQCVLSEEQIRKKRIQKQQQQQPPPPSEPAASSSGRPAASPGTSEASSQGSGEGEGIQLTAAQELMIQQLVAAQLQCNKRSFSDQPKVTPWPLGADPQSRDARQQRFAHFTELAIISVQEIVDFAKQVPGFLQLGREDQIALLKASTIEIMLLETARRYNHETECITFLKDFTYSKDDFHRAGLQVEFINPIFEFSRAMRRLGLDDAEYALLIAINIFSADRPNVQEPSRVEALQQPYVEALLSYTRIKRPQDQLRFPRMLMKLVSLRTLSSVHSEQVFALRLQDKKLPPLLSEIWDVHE

[5] = target: T5, Oxysterols receptor LXR-beta (Mus musculus) (UniProt Q60644); assay: Agonist activity at mouse LXRbeta expressed in HEK293 cells co-expressing CMX-beta-galactosidase incubated for 16 hrs by luciferase reporter gene assay relative to T0901317; format: cell-based
T5 sequence (whole entry): T4 sequence (Q60644 whole entry)

[6] = target: T6, Oxysterols receptor LXR-beta (Homo sapiens, UniProt P55055); assay: Agonist activity at LXRbeta ligand-binding domain (unknown origin) incubated for 1.5 hrs using fluorescein-labeled coactivator peptide by TR-FRET competitive binding assay
[7] = target: T7, Oxysterols receptor LXR-alpha (Mus musculus) (UniProt Q9Z0Y9); assay: Agonist activity at mouse LXRalpha expressed in HEK293 cells co-expressing CMX-beta-galactosidase at 30 uM incubated for 16 hrs by luciferase reporter gene assay; format: cell-based
T7 sequence (whole entry): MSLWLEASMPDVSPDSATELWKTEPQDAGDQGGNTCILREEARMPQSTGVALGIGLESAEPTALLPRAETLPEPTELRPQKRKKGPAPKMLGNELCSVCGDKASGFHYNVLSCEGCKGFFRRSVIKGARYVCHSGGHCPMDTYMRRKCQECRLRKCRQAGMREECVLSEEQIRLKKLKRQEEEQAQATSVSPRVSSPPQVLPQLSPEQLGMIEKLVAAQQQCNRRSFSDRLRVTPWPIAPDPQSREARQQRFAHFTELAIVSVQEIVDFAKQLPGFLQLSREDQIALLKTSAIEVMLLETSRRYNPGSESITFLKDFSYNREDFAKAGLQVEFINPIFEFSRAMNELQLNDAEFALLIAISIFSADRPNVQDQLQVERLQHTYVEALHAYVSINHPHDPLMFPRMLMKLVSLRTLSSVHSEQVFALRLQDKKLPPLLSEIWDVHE

[8] = target: T6, Oxysterols receptor LXR-beta; assay: Agonist activity at LXRbeta ligand-binding domain (unknown origin) incubated for 1.5 hrs using fluorescein-labeled coactivator peptide by TR-FRET competitive binding assay
[9] = target: T1, Oxysterols receptor LXR-beta (Homo sapiens); assay: Agonist activity at LXRbeta in human THP1 cells assessed as increase in ABCA1 mRNA expression at 1 uM by real-time quantitative RT-PCR method; format: cell-based

Efficacy [1]: 149%
Activity [2]: inactive
Activity [3]: inactive
EC50 [4]: 790 nM
Efficacy [5]: 24%
EC50 [6]: 40.4 nM
Activity [7]: inactive
Activity [8]: Dose-dependent effect
Activity [9]: Active
Structure (SMILES): O=C1c2c(Cl)c(Cl)c(Cl)c(Cl)c2C(=O)N1c1ccccc1/C=C/c1cccs1
